In patent publication US8594942B2, “Computational method and system for identifying network patterns in complex biological systems data” (Metabolon, Inc., priority 2004, dated 2013):
Entries after “also recorded” stand apart in the source; their conditions may differ.

Columns and labels:
[1] = tested on: rats; conditions: cited from earlier work
[2] = tested on: Male Fischer 344 rats; assay: Acetaminophen-induced liver toxicity study: biochemical profiling (LC-MS) of rat liver; assay type: in vivo; conditions: rat liver metabolite, single dose p.o.
Protocol: An acetaminophen-induced liver toxicity study was performed as follows. Male Fischer 344 rats were administered a single dose of acetaminophen (APAP) at 0, 50, 150, 1500 or 2000 mg/kg p.o. (6 rats per group). The 150 mg/kg dose is equivalent to a low overdose level in humans (˜10 g) and 1500 mg/kg is a low toxic dose in rats. The rats were sacrificed at 6, 18, 24, and 48 hr post dosing. Livers of the rats were processed for biochemical profiling, histopathology and gene expression analysis. For the 0, 50 and 1500 mg/kg dose groups, rat urine was collected at −24-0, 0-6, 6-24, and 24-48 hr relative to dosing. Similarly, rat serum was collected at 48 hr for the 0, 50 and 1500 mg/kg groups.
Rat tissue was prepared for LC-MS analysis as follows. Rat liver tissue samples were frozen upon collection. A slice of each frozen sample was placed into a mortar, covered with liquid nitrogen, and ground with a pestle. 100 mg of ground sample was placed in a cryovial, extraction fluid and beads were added, and the sample was further ground and then centrifuged. The supernatant was transferred to a clean cryovial, centrifuged again, and then transferred to a well of a 96-well plate.
LC-MS analysis of the rat tissue and biofluid samples was performed on an Applied Biosystems Mariner liquid chromatograph coupled with a time of flight mass spectrometer (LC-TOF). The mass resolution for the mass spectrometer employed in this experiment was 0.200 amu. One LC was employed with a splitter that allowed for the eluent to be delivered to two TOF MS instruments, one operating in positive ionization mode, the other in negative ionization mode. Compounds detected by LC-MS with an electrospray ion source were cataloged based on retention times and mass-to-charge ratio (m/z) of the ions characteristic of each peak. Mass spectrometric data were collected from 80-900 amu. Raw LC-MS data were processed using the commercially available software TARGETDB (Thru-Put Systems, Inc., Orlando, Fla.).
A targeted list of relative responses for peaks and peaks annotated as known compounds was produced from the LC/MS data for the rat liver samples described in Example 1 and is illustrated in FIG. 1. The resulting biochemical profiling data was subjected to Principal Component Analysis (PCA), showing trends over both dose and time (see FIG. 2). The third principal component (x-axis) is plotted against the second principal component (y-axis) for each of the 6, 18, 24 and 48 hr time points for acetaminophen doses 150 mg/kg (yellow), 1500 mg/kg (black), and 2000 mg/kg (green). Each data point represents the average for six animals.
Mathematical models of the trends observed in the PCA plot were developed. […] Trend 1 is a trend of increasing distance from control as the dose increases at any given time point. Trend 2 is a trend of change from one time point to the next that is in the same direction and of increasing magnitude as dose increases. Each of the relative response peaks in the liver biochemical profiling dataset was tested for adherence to the mathematical models to locate the subset of peaks that followed the observed trends. The peaks that adhered to the models were identified as the subset of most interest for further analysis of acetaminophen-induced liver changes. To further investigate the mode of action of acetaminophen, the known compounds in the identified subset were further analyzed using the methods and systems of the present invention.
Using the methods and systems of the present invention, another graph was generated depicting the 15 components of interest, from Example 3 above, that were closely related enough to fit on a single graph. […] It should be noted that not only is the perturbation of the 15 compounds of interest depicted in FIG. 5, but the experimental result from any compound measured and depicted in the network of FIG. 5 is shown. […]

## CC(=O)Nc1ccc(O)cc1 [acetaminophen]
[1]
  low toxic dose in rats: 1500 mg/kg
[2]; FIG. 5 network component 2
  Status of L-asparagine: Down Regulated
[2]; FIG. 5 network component 7
  Status of ‘N’-acetyl-“b”-D-glucosamine: Down Regulated
[2]; FIG. 5 network component 8
  Status of “a”-ketoglutarate: Down Regulated
[2]; FIG. 5 network component 10
  Status of L-glutamine: Down Regulated
[2]; FIG. 5 network component 14
  Status of L-arginine: didn't undergo a significant change; also recorded: No Significant Change
[2]; FIG. 5 network component 17
  Status of L-cystathionine: Down Regulated
[2]; FIG. 5 network component 18
  Status of “a”-hetobutyrate: Down Regulated
[2]; FIG. 5 network component 19
  Status of L-cysteine: Down Regulated
[2]; FIG. 5 network component 21
  Status of L-serine: Down Regulated
[2]; FIG. 5 network component 23
  Status of “o”-phosphoethanolamine: Up Regulated
[2]; FIG. 5 network component 25
  Status of (‘S)-lactate: Down Regulated
[2]; FIG. 5 network component 26
  Status of Pyruvate: Down Regulated
[2]; FIG. 5 network component 29
  Status of Phospho‘enol’pyruvate: No Significant Change
[2]; FIG. 5 network component 30
  Status of GTP: Down Regulated
[2]; FIG. 5 network component 31
  Status of GDP: didn't undergo a significant change; also recorded: No Significant Change
[2]; FIG. 5 network component 32
  Status of Phenylpyruvate: Up Regulated
[2]; FIG. 5 network component 33
  Status of L-phenylalanine: Down Regulated
[2]; FIG. 5 network component 34
  Status of L-tyrosine: Down Regulated
[2]; FIG. 5 network component 35
  Status of L-dopa: Down Regulated
[2]; FIG. 5 network component 37
  Status of glutathione: Up Regulated
